This series in a line: log P determination by HPLC (EEC Directive 79/831 Annex V.A8, gradient method). It counts as physicochemical.
For the compound `CC(C)CN(C)C(=O)/C=C/c1c(-c2cccc(Cl)c2)nc2sc(C(F)(F)F)nn12` [Example 0138], the “Physical data (logP)” value amounted to 4.63.
On the same count and under the same terms, under `CCN(CC)C(=O)/C=C/c1c(-c2cccc(Cl)c2)nc2sc(C(F)(F)F)nn12` [Example 0140] stands 4.28; under `O=C(/C=C/c1c(-c2cccc(Cl)c2)nc2sc(C(F)(F)F)nn12)N1CCCCC1` [Example 0141], 4.37; under `CCNC(=O)/C=C/c1c(-c2ccccc2Cl)nc2sc(C(F)(F)F)nn12` [Example 0147], 2.82.
Regarding `CC(C)(C)NC(=O)/C=C/c1c(-c2ccccc2Cl)nc2sc(C(F)(F)F)nn12` [Example 0150], the “Physical data (logP)” value was determined as 3.72.
Regarding `O=C(/C=C/c1c(-c2ccccc2Cl)nc2sc(C(F)(F)F)nn12)NC1CCCC1` [Example 0154], the “Physical data (logP)” value is recorded as 3.55.
As to `O=C(/C=C/c1c(-c2ccccc2Cl)nc2sc(C(F)(F)F)nn12)NC1CCCCC1` [Example 0155], the “Physical data (logP)” value was 3.9.
Same read-out and setting: under `CCC(NC(=O)C=Cc1c(-c2ccccc2Cl)nc2sc(C(F)(F)F)nn12)c1ccccc1` (stereo not drawn) [Example 0190] stands 4.08; under `O=C(/C=C/c1c(-c2ccccc2Cl)nc2sc(C(F)(F)F)nn12)NCc1ccc(F)cc1` [Example 0191], 3.7; under `CCC(NC(=O)C=Cc1c(-c2ccccc2Cl)nc2sc(C(F)(F)F)nn12)C1CCCCC1` (stereo not drawn) [Example 0196], 4.82.
With `O=C(/C=C/c1c(-c2ccccc2Cl)nc2sc(C(F)(F)F)nn12)NCCc1ccc(Cl)cc1` [Example 0199], the “Physical data (logP)” value turned out to be 4.09.
Still for that read-out and setting: then `O=C(/C=C/c1c(-c2ccccc2Cl)nc2sc(C(F)(F)F)nn12)NOCC1CC1` [Example 0211], with 3.18.
In the case of `CCN(CC)C(=O)/C=C/c1c(-c2ccccc2Cl)nc2sc(C(F)(F)F)nn12` [Example 0221], the “Physical data: log P” value came out at 3.61.
On the same count and under the same terms, then `O=C(/C=C/c1c(-c2ccccc2Cl)nc2sc(C(F)(F)F)nn12)N1CCCCC1` [Example 0222], with 3.76.
Turning to `Cc1ccccc1-c1nc2sc(C(F)(F)F)nn2c1/C=C/C(=O)NC(C)(C)C` [Example 0231], the “Physical data: log P” value came to 3.85.
As to `Cc1ccccc1-c1nc2sc(C(F)(F)F)nn2c1/C=C/C(=O)NC1CC1` [Example 0233], the “Physical data: log P” value came to 2.99.
On to `Cc1ccccc1-c1nc2sc(C(F)(F)F)nn2c1/C=C/C(=O)NC1CCC1` [Example 0234], for which the “Physical data: log P” value stood at 3.41.
The same measure, in the same setting: under `Cc1ccccc1-c1nc2sc(C(F)(F)F)nn2c1/C=C/C(=O)NC1CCCC1` [Example 0235] stands 3.68; under `Cc1ccccc1-c1nc2sc(C(F)(F)F)nn2c1/C=C/C(=O)NC1CCCCC1` [Example 0236], 4.03; under `Cc1ccccc1-c1nc2sc(C(F)(F)F)nn2c1/C=C/C(=O)NCC1CC1` [Example 0237], 3.37.
Still for that read-out and setting: then `Cc1ccccc1-c1nc2sc(C(F)(F)F)nn2c1/C=C/C(=O)NC(C)c1ccccc1` (stereo not drawn) [Example 0260], with 3.94.
The same measure, in the same setting: then `CCC(NC(=O)C=Cc1c(-c2ccccc2C)nc2sc(C(F)(F)F)nn12)c1ccccc1` (stereo not drawn) [Example 0261], with 4.18; and `Cc1ccccc1-c1nc2sc(C(F)(F)F)nn2c1/C=C/C(=O)NC(C)COc1ccccc1` (stereo not drawn) [Example 0265], with 4.18.
Turning to `CCC(NC(=O)C=Cc1c(-c2ccccc2C)nc2sc(C(F)(F)F)nn12)C1CCCCC1` (stereo not drawn) [Example 0267], the “Physical data: log P” value amounted to 4.92.
Consider `Cc1ccccc1-c1nc2sc(C(F)(F)F)nn2c1/C=C/C(=O)NOCC1CC1` [Example 0282], for which the “Physical data: log P” value is 3.26.
On the same count and under the same terms, then `Cc1ccccc1-c1nc2sc(C(F)(F)F)nn2c1/C=C/C(=O)NOC(C)c1ccccc1` (stereo not drawn) [Example 0284], with 3.81.
Still for that read-out and setting: under `CCN(CC)C(=O)/C=C/c1c(-c2ccccc2C)nc2sc(C(F)(F)F)nn12` [Example 0292] stands 3.75; under `Cc1ccccc1-c1nc2sc(C(F)(F)F)nn2c1/C=C/C(=O)N1CCCCC1` [Example 0293], 3.85.
The same measure, in the same setting: then `Cc1ccccc1-c1nc2sc(C(F)(F)F)nn2c1/C=C/C(=O)N1CCOCC1` [Example 0294], with 2.91; and `CC(C)(C)NC(=O)/C=C/c1c(-c2ccc(F)cc2)nc2sc(C(F)(F)F)nn12` [Example 0302], with 3.81; and `O=C(/C=C/c1c(-c2ccc(F)cc2)nc2sc(C(F)(F)F)nn12)NC1CC1` [Example 0304], with 2.95.
In the case of `O=C(/C=C/c1c(-c2ccc(F)cc2)nc2sc(C(F)(F)F)nn12)NC1CCC1` [Example 0305], the “Physical data: log P” value was found to be 3.41.
`O=C(/C=C/c1c(-c2ccc(F)cc2)nc2sc(C(F)(F)F)nn12)NC1CCCC1` [Example 0306]: the “Physical data: log P” value was found to be 3.63.
The same measure, in the same setting: under `O=C(/C=C/c1c(-c2ccc(F)cc2)nc2sc(C(F)(F)F)nn12)NC1CCCCC1` [Example 0307] stands 3.99; under `O=C(/C=C/c1c(-c2ccc(F)cc2)nc2sc(C(F)(F)F)nn12)NCC1CC1` [Example 0308], 3.33; under `CCC(C)NC(=O)/C=C/c1c(-c2ccc(F)cc2)nc2sc(C(F)(F)F)nn12` (stereo not drawn) [Example 0309], 3.55.
The same measure, in the same setting: under `CCCC(C)NC(=O)/C=C/c1c(-c2ccc(F)cc2)nc2sc(C(F)(F)F)nn12` (stereo not drawn) [Example 0310] stands 3.9; under `COCC(C)NC(=O)/C=C/c1c(-c2ccc(F)cc2)nc2sc(C(F)(F)F)nn12` (stereo not drawn) [Example 0311], 3.07.
The same measure, in the same setting: then `CC(C)C(C)NC(=O)/C=C/c1c(-c2ccc(F)cc2)nc2sc(C(F)(F)F)nn12` (stereo not drawn) [Example 0316], with 3.81; and `CC(NC(=O)/C=C/c1c(-c2ccc(F)cc2)nc2sc(C(F)(F)F)nn12)c1ccccc1` (stereo not drawn) [Example 0331], with 3.9; and `CCC(NC(=O)C=Cc1c(-c2ccc(F)cc2)nc2sc(C(F)(F)F)nn12)c1ccccc1` (stereo not drawn) [Example 0332], with 4.18.
`CC(COc1ccccc1)NC(=O)/C=C/c1c(-c2ccc(F)cc2)nc2sc(C(F)(F)F)nn12` (stereo not drawn) [Example 0336]: the “Physical data: log P” value turned out to be 4.13.
Consider `CCC(NC(=O)C=Cc1c(-c2ccc(F)cc2)nc2sc(C(F)(F)F)nn12)C1CCCCC1` (stereo not drawn) [Example 0338], for which the “Physical data: log P” value worked out at 4.92.
For `CC(NC(=O)/C=C/c1c(-c2ccc(F)cc2)nc2sc(C(F)(F)F)nn12)c1ccccn1` (stereo not drawn) [Example 0345], the “Physical data: log P” value turned out to be 2.45.
The same measure, in the same setting: then `CC(ONC(=O)/C=C/c1c(-c2ccc(F)cc2)nc2sc(C(F)(F)F)nn12)c1ccccc1` (stereo not drawn) [Example 0355], with 3.81; and `CCC(CC)NC(=O)/C=C/c1c(-c2ccc(F)cc2)nc2sc(C(F)(F)F)nn12` [Example 0357], with 3.81.
`CCN(CC)C(=O)/C=C/c1c(-c2ccc(F)cc2)nc2sc(C(F)(F)F)nn12` [Example 0363]: the “Physical data: log P” value turned out to be 3.72.
As to `O=C(/C=C/c1c(-c2ccc(F)cc2)nc2sc(C(F)(F)F)nn12)N1CCCCC1` [Example 0364], the “Physical data: log P” value is 3.85.
As for `O=C(/C=C/c1c(-c2ccc(F)cc2)nc2sc(C(F)(F)F)nn12)N1CCOCC1` [Example 0365], the “Physical data: log P” value came out at 2.91.
On the same count and under the same terms, then `CC(C)NC(=O)/C=C/c1c(-c2cccc(C(F)(F)F)c2)nc2sc(C(F)(F)F)nn12` [Example 0371], with 3.85.
Same read-out and setting: under `CC(C)(C)NC(=O)/C=C/c1c(-c2cccc(C(F)(F)F)c2)nc2sc(C(F)(F)F)nn12` [Example 0373] stands 4.41; under `O=C(/C=C/c1c(-c2cccc(C(F)(F)F)c2)nc2sc(C(F)(F)F)nn12)NC1CC1` [Example 0375], 3.59; under `O=C(/C=C/c1c(-c2cccc(C(F)(F)F)c2)nc2sc(C(F)(F)F)nn12)NC1CCC1` [Example 0376], 4.03.
Still for that read-out and setting: then `O=C(/C=C/c1c(-c2cccc(C(F)(F)F)c2)nc2sc(C(F)(F)F)nn12)NC1CCCC1` [Example 0377], with 4.27; and `O=C(/C=C/c1c(-c2cccc(C(F)(F)F)c2)nc2sc(C(F)(F)F)nn12)NC1CCCCC1` [Example 0378], with 4.61.
Regarding `O=C(/C=C/c1c(-c2cccc(C(F)(F)F)c2)nc2sc(C(F)(F)F)nn12)NCC1CC1` [Example 0379], the “Physical data: log P” value is 3.94.
The same measure, in the same setting: then `CCC(C)NC(=O)/C=C/c1c(-c2cccc(C(F)(F)F)c2)nc2sc(C(F)(F)F)nn12` (stereo not drawn) [Example 0380], with 4.18; and `CCCC(C)NC(=O)/C=C/c1c(-c2cccc(C(F)(F)F)c2)nc2sc(C(F)(F)F)nn12` (stereo not drawn) [Example 0381], with 4.56.
The same measure, in the same setting: under `COCC(C)NC(=O)/C=C/c1c(-c2cccc(C(F)(F)F)c2)nc2sc(C(F)(F)F)nn12` (stereo not drawn) [Example 0382] stands 3.68.
With `CC(C)C(C)NC(=O)/C=C/c1c(-c2cccc(C(F)(F)F)c2)nc2sc(C(F)(F)F)nn12` (stereo not drawn) [Example 0387], the “Physical data: log P” value is reported as 4.46.
Turning to `CC(NC(=O)/C=C/c1c(-c2cccc(C(F)(F)F)c2)nc2sc(C(F)(F)F)nn12)C(F)(F)F` (stereo not drawn) [Example 0388], the “Physical data: log P” value was 4.27.
On the same count and under the same terms, under `CC(NC(=O)/C=C/c1c(-c2cccc(C(F)(F)F)c2)nc2sc(C(F)(F)F)nn12)c1ccccc1` (stereo not drawn) [Example 0402] stands 4.46; under `CCC(NC(=O)C=Cc1c(-c2cccc(C(F)(F)F)c2)nc2sc(C(F)(F)F)nn12)c1ccccc1` (stereo not drawn) [Example 0403], 4.72.
Still for that read-out and setting: under `CC(COc1ccccc1)NC(=O)/C=C/c1c(-c2cccc(C(F)(F)F)c2)nc2sc(C(F)(F)F)nn12` (stereo not drawn) [Example 0407] stands 4.67; under `CCC(NC(=O)C=Cc1c(-c2cccc(C(F)(F)F)c2)nc2sc(C(F)(F)F)nn12)C1CCCCC1` (stereo not drawn) [Example 0409], 5.48; under `O=C(/C=C/c1c(-c2cccc(C(F)(F)F)c2)nc2sc(C(F)(F)F)nn12)NOCC1CC1` [Example 0424], 3.81.

(Values after patent US20090118286A1, “Heterobicyclic Acrylamides” (Bayer Cropscience AG, priority 2005, published 2009).)
